US20160143906A1, “EFFICACIOUS TREATMENT OF NSCLC AND PREDICTIVE CLINICAL MARKER OF THE RESPONSIVENESS OF A TUMOUR TO A TREATMENT” (Boehringer Ingelheim International GmbH, priority 2013, published 2016)
Entries after “also recorded” stand apart in the source; their conditions may differ. Read-outs that look alike come from different tables or passages of the source.

How the values were obtained:
[1] = tested on: NSCLC after fast progression on first-line platinum doublet chemotherapy; details: TITAN; fast progressing patients who failed during 1st line platinum containing therapy; cited from earlier work
[2] = tested on: tumors with activating EGFR mutations or the Alk translocation; details: monotherapy; non-squamous patients with activating EGFR mutations or Alk translocation; cited from earlier work
[3] = tested on: HT-29; test: in vivo anti-tumor efficacy, xenograft model HT-29 (colorectal)
[4] = tested on: advanced NSCLC tumours; test: Phase 3 clinical study LUME LUNG 2 (nintedanib+pemetrexed vs placebo+pemetrexed); type: in vivo, human
Description: Continuation until Progressive Disease (PD) or unacceptable toxicity with nintedanib, placebo, pemetrexed, or a combination thereof, was permitted. […] Primary endpoint was centrally assessed PFS. Secondary endpoints included OS, investigator-assessed PFS, Response Rate (RR), safety, and Quality of Life (QoL). Stepwise selection, using Cox proportional hazards modeling and a recursive partitioning tree, identified baseline variables prognostic for PFS in Arm B (placebo) of LUME LUNG 2. […] These methods were applied to the LUME LUNG 2 Data Monitoring Committee (DMC) dataset, to develop a hypothesis that was tested and validated by three steps: (i) internal confirmation using centrally assessed PFS and internal validation using OS data of the clinical trial LL2; (ii) external validation using the data from the primary analysis of the independent clinical trial LL1 (centrally assessed PFS and internal validation using OS data); and (iii) external validation using the final OS data of the clinical trial LL1.
(§1) In the case of a significant interaction between treatment and a continuous variable, not only the categorisation delivered by the recursive partitioning was investigated but hazard ratios HR (treatment effect) were also globally estimated at different values of the interacting covariate.
(§2) Kaplan-Meier plots and Forrest Plots were further used for the graphical presentation of the results.

[5] = tested on: locally advanced/metastatic NSCLC; test: Phase 3 clinical study LUME LUNG 1 (nintedanib+docetaxel vs placebo+docetaxel); type: in vivo, human
Description: LUME LUNG 1 is a placebo-controlled phase 3 trial investigating nintedanib+docetaxel in patients with locally advanced/metastatic NSCLC progressing after one prior combination regimen.
as §1, §2

[6] = tested on: NSCLC; test: clinical trial evidence as summarised (progression within 9 months or less after initiation of prior treatment); type: in vivo, human
[7] = tested on: PAC-120; test: in vivo anti-tumor efficacy, xenograft model PAC-120 (prostate, hormone-dependent); details: 100 mg/kg/d
[8] = tested on: Calu-6; test: in vivo anti-tumor efficacy, xenograft model Calu-6 (lung, non-small-cell); details: 50 mg/kg/d
[9] = tested on: FaDu; test: in vivo anti-tumor efficacy, xenograft model FaDu (head and neck); details: 100 mg/kg/d
[10] = tested on: Rip-Tag; test: in vivo anti-tumor efficacy, Rip-Tag model (pancreas, murine transgenic)
[11] = tested on: GS-9L syngeneic rat; test: in vivo anti-tumor efficacy, syngeneic rat tumor model GS-9L (glioblastoma); details: 50 mg/kg/d
[12] = tested on: SKOV3; test: in vivo anti-tumor efficacy, xenograft model SKOV3 (ovarian); details: 50 mg/kg/d
[13] = tested on: NCI-H460; test: in vivo anti-tumor efficacy, xenograft model NCI-H460 (lung, non-small-cell); details: 25 mg/kg/d
[14] = tested on: Caki-1; test: in vivo anti-tumor efficacy, xenograft model Caki-1 (renal); details: 100 mg/kg/d
[15] = LL1 squamous cell tumour histology
[16] = LL1 squamous cell, large tumour burden

For `C#Cc1cccc(Nc2ncnc3cc(OCCOC)c(OCCOC)cc23)c1` [erlotinib], the “efficacy in PFS and OS compared to docetaxel or pemetrexed” value [1] is given as “did not show any superior efficacy”, the OS improvement [2] is given as “no OS improvements have been observed” and the “median PFS” value [2] is given as “around 20 months”.

With `COC(=O)c1ccc2c(c1)NC(=O)/C2=C(\Nc1ccc(N(C)C(=O)CN2CCN(C)CC2)cc1)c1ccccc1` [nintedanib, 3-Z-[1-(4-(N-((4-methyl-piperazin-1-yl)-methylcarbonyl)-N-methyl-amino)-anilino)-1-phenyl-methylene]-6-methoxycarbonyl-2-indolinone] the “T/C (reduction of tumor size in % of the control)” value ([3]; HT-29, 100 mg/kg/d) was “T/C 16% @ 100 mg/kg/d”, the Efficacy ([3]; HT-29 large tumors) was “tumor volume reduction” and the safety ([4]; LL2) was “no safety issues were identified”. The “median PFS” value ([4]; LL2 ITT analysis, centrally reviewed PFS) was 4.4 months, the Disease control ([4]; LL2 ITT, versus placebo) was “significantly improved” and the “HR (OS)” value ([4]; LL2 adenocarcinoma, t<9 mo) was 0.87. The “HR (PFS)” value ([4]; LL2 adenocarcinoma, t<9 mo) was 0.79, the “HR (OS)” value ([4]; LL2 all) was 1.01 and the “HR (PFS)” value ([4]; LL2 all) was 0.84. The “Improvement of median OS of nintedanib versus placebo” value ([4]; LL2 all) was “No difference; also recorded: None (OS)”, the “median improvement of time to deterioration of cough” value ([4]; LL2 fast progressing patients, nintedanib versus placebo) was 3.7 months and the “median OS” value ([4]; LL2 t<9 mo patient population) was 10.6 months. For the same compound, the “median PFS” value ([4]; LL2 t<9 mo patient population) was 4.1 months, the “HR (OS)” value ([5]; LL1 adenocarcinoma) was 0.83 and the “HR (PFS)” value ([5]; LL1 adenocarcinoma) was 0.84. The “benefit in fast progressing population with cut-off of 4 or 6 months” value ([5]; LL1 adenocarcinoma, t<4 mo or t<6 mo) was “confirmed”, the “HR (OS)” value ([5]; LL1 adenocarcinoma, t<9 mo) was 0.75 and the “HR (PFS)” value ([5]; LL1 adenocarcinoma, t<9 mo) was 0.68. For the same compound, the “HR (OS)” value ([5]; LL1 all NSCLC patients) was 0.94, the “HR (PFS)” value ([5]; LL1 all NSCLC patients) was 0.85 and the “HR (OS)” value [5, 15] was 1.01. For the same compound, the “HR (PFS)” value [5, 15] was 0.83, the “Improvement of median OS of nintedanib versus placebo” value [5, 15] was “No benefit; also recorded: None (OS)” and the “HR (OS)” value [5, 16] was 0.82. The “HR (PFS)” value [5, 16] was 0.71, the “Improvement of median PFS of nintedanib versus placebo” value [5, 16] was 0.9 months (PFS) and the “median PFS” value ([5]; LL1 whole NSCLC patient population, centrally assessed) was 3.5 months. The “improvement in the median of both PFS and OS compared to placebo” value [6] was “superior or equal to one month”, the “improvement in the median of both PFS and OS compared to placebo” value ([6]; adenocarcinoma NSCLC) was no less than 1.3 months and the “T/C (reduction of tumor size in % of the control)” value [7] was “T/C 34% @ 100 mg/kg/d”. For the same compound, the “T/C (reduction of tumor size in % of the control)” value [8] was “T/C 24% @ 50 mg/kg/d”, the “T/C (reduction of tumor size in % of the control)” value [9] was “T/C 11% @ 100 mg/kg/d” and the Efficacy [10] was “interference with tumor”. The “T/C (reduction of tumor size in % of the control)” value [11] was “T/C 32% @ 50 mg/kg/d”, the “T/C (reduction of tumor size in % of the control)” value [12] was “T/C 19% @ 50 mg/kg/d” and the “T/C (reduction of tumor size in % of the control)” value [13] was “T/C 54% @ 25 mg/kg/d”. The “T/C (reduction of tumor size in % of the control)” value [14] was “T/C 13% @ 100 mg/kg/d”.
